The text below walks through data of patent US12054494B2, “Compound with anticancer activity” (KYOWA KIRIN CO., LTD., priority 2018, dated 2024).

One may read the IC90 as the point of the concentration-response curve where the effect stands at 90%. Low readings indicate greater potency, high ones weaker potency.

The subject of the assay is SU-DHL-4 cells. Put plainly: Inhibitory effect on cell viability (Cell Counting Kit-8). It is filed as cell-based. The note with it: Homo sapiens, 72 hours culture with test compound, concentration showing 90% inhibition rate of cell viability. The essentials: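 SU-DHL-4 cells (2000/well, RPMI1640 with 10% FBS) precultured 18-25 h, then exposed to a 9-step compound dilution series (0.1% DMSO final) for 72 h at 37° C. Viability by CCK-8 absorbance at 450 nm after 2-3 h; IC90 computed from inhibition rate relative to untreated and cell-free wells.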
On the technique in general: Formazan colour is commonly taken as a measure of viable cells.
`CCC(=O)N1c2ccccc2[C@H](Nc2ccc(C(=O)NCCn3cc(-c4ccc(N[C@@H]5C[C@H](C)N(C(=O)CC)c6ccccc65)cc4)cn3)cc2)C[C@@H]1C` [Compound 6q, 4-(((2S,4R)-2-Methyl-1-propionyl-1,2,3,4-tetrahydroquinolin-4-yl)amino)-N-(2-(4-(4-(((2S,4R)-2-methyl-1-propionyl-1,2,3,4-tetrahydroquinolin-4-yl)amino)phenyl)-1H-pyrazol-1-yl)ethyl)benzamide] yielded an IC90 of 450 pM.

In turn, `CCC(=O)N1c2ccccc2[C@H](Nc2ccc(NC(=O)C3CN(C(=O)N4CCC(N[C@@H]5C[C@H](C)N(C(=O)CC)c6ccccc65)CC4)C3)cc2)C[C@@H]1C` [Compound 10a, N-(4-(((2S,4R)-2-Methyl-1-propionyl-1,2,3,4-tetrahydroquinolin-4-yl)amino)phenyl)-1-(4-(((2S,4R)-2-methyl-1-propionyl-1,2,3,4-tetrahydroquinolin-4-yl)amino)piperidine-1-carbonyl)azetidine-3-carboxamide] returned an IC90 of 2400 pM.

In turn, `CCC(=O)N1c2ccccc2[C@H](Nc2ccc(C(=O)NCC#CC(=O)N3CCC(N[C@@H]4C[C@H](C)N(C(=O)CC)c5ccccc54)CC3)cc2)C[C@@H]1C` [Compound 10c, 4-(((2S,4R)-2-Methyl-1-propionyl-1,2,3,4-tetrahydroquinolin-4-yl)amino)-N-(4-(4-(((2S,4R)-2-methyl-1-propionyl-1,2,3,4-tetrahydroquinolin-4-yl)amino)piperidin-1-yl)-4-oxobut-2-yn-1-yl)benzamide] gave an IC90 of 130 pM.

As for `CCC(=O)N1c2ccccc2[C@H](Nc2ccc(NC(=O)CCCC(=O)Nc3ccc(N[C@@H]4C[C@H](C)N(C(=O)CC)c5ccccc54)nc3)cc2)C[C@@H]1C` [Compound 10k, N^1-(4-(((2S,4R)-2-Methyl-1-propionyl-1,2,3,4-tetrahydroquinolin-4-yl)amino)phenyl)-N^5-(6-(((2S,4R)-2-methyl-1-propionyl-1,2,3,4-tetrahydroquinolin-4-yl)amino)pyridin-3-yl)glutaramide], the concentration for an effect of 90% (IC90) turned out to be 930 pM.

`CCC(=O)N1c2ccc(F)cc2[C@H](Nc2ccc(C(=O)NCCCNC(=O)c3ccc(N[C@@H]4C[C@H](C)N(C(=O)CC)c5ccc(F)cc54)cc3)cc2)C[C@@H]1C` [Compound 10q, N,N′-(Propane-1,3-diyl)bis(4-(((2S,4R)-6-fluoro-2-methyl-1-propionyl-1,2,3,4-tetrahydroquinolin-4-yl)amino)benzamide)] yielded an IC90 of 9880 pM.

`CCC(=O)N1c2ccc(F)cc2[C@H](Nc2ccc(C(=O)NCCNC(=O)c3ccc(N[C@@H]4C[C@H](C)N(C(=O)CC)c5ccc(F)cc54)cc3)cc2)C[C@@H]1C` [Compound 10r, N,N′-(Ethane-1,2-diyl)bis(4-(((2S,4R)-6-fluoro-2-methyl-1-propionyl-1,2,3,4-tetrahydroquinolin-4-yl)amino)benzamide)] gave an IC90 of 9160 pM.

Molecule `CCC(=O)N1c2ccccc2[C@H](Nc2ccc(-c3nnc(CNC(=O)C4CCN(Cc5cc(O)cc(-c6c(C)noc6C)c5)CC4)o3)cc2)C[C@@H]1C` [Compound 12a, 1-(3-(3,5-Dimethylisoxazol-4-yl)-5-hydroxybenzyl)-N-((5-(4-(((2S,4R)-2-methyl-1-propionyl-1,2,3,4-tetrahydroquinolin-4-yl)amino)phenyl)-1,3,4-oxadiazol-2-yl)methyl)piperidine-4-carboxamide] registered an IC90 of 1010 pM.

The molecule `CCC(=O)N1c2ccccc2[C@H](Nc2ccc(NC(=O)C3CN(C(=O)C4CCN(Cc5cc(O)cc(-c6c(C)noc6C)c5)CC4)C3)cc2)C[C@@H]1C` [Compound 12b, 1-(1-(3-(3,5-Dimethylisoxazol-4-yl)-5-hydroxybenzyl)piperidine-4-carbonyl)-N-(4-(((2S,4R)-2-methyl-1-propionyl-1,2,3,4-tetrahydroquinolin-4-yl)amino)phenyl)azetidine-3-carboxamide] displayed an IC90 of 4350 pM.

The molecule `CCC(=O)N1c2ccccc2[C@H](Nc2ccc(SCCNC(=O)c3ccc(C4=N[C@@H](CC(=O)OCCN(C)C)c5nnc(C)n5-c5sc(C)c(C)c54)cc3)cc2)C[C@@H]1C` [Compound 13a, 2-(Dimethylamino)ethyl 2-((S)-2,3,9-trimethyl-4-(4-((2-((4-(((2S,4R)-2-methyl-1-propionyl-1,2,3,4-tetrahydroquinolin-4-yl)amino)phenyl)thio)ethyl)carbamoyl)phenyl)-6H-thieno[3,2-f][1,2,4]triazolo[4,3-a][1,4]diazepin-6-yl)acetate] showed an IC90 of 490 pM.

As to `CCC(=O)N1c2ccccc2[C@H](Nc2ccc(-c3cnn(CC(=O)Nc4ccc(C5=NCc6nnc(C)n6-c6sc(C)c(C)c65)cc4)c3)cc2)C[C@@H]1C` [Compound 14a, 2-(4-(4-(((2S,4R)-2-Methyl-1-propionyl-1,2,3,4-tetrahydroquinolin-4-yl)amino)phenyl)-1H-pyrazol-1-yl)-N-(4-(2,3,9-trimethyl-6H-thieno[3,2-f][1,2,4]triazolo[4,3-a][1,4]diazepin-4-yl)phenyl)acetamide], the IC90 came to 40 pM.

In turn, `CCC(=O)N1c2ccccc2[C@H](Nc2ccc(-c3cnn(CCNC(=O)c4ccc(C5=NCc6nnc(C)n6-c6sc(C)c(C)c65)cc4)c3)cc2)C[C@@H]1C` [Compound 14b, N-(2-(4-(4-(((2S,4R)-2-Methyl-1-propionyl-1,2,3,4-tetrahydroquinolin-4-yl)amino)phenyl)-1H-pyrazol-1-yl)ethyl)-4-(2,3,9-trimethyl-6H-thieno[3,2-f][1,2,4]triazolo[4,3-a][1,4]diazepin-4-yl)benzamide] yielded a concentration for an effect of 90% (IC90) of 120 pM.

As for `CCC(=O)N1c2ccccc2[C@H](Nc2ccc(NC(=O)COCC(=O)Nc3ccc(C4=NCc5nnc(C)n5-c5sc(C)c(C)c54)cc3)cc2)C[C@@H]1C` [Compound 14d, N-(4-(((2S,4R)-2-Methyl-1-propionyl-1,2,3,4-tetrahydroquinolin-4-yl)amino)phenyl)-2-(2-oxo-2-((4-(2,3,9-trimethyl-6H-thieno[3,2-f][1,2,4]triazolo[4,3-a][1,4]diazepin-4-yl)phenyl)amino)ethoxy)acetamide], the IC90 came to 160 pM.

As to `Cc1sc2c(c1C)C(c1ccc(NC(=O)C#CCNC(=O)c3ccc(C4=NCc5nnc(C)n5-c5sc(C)c(C)c54)cc3)cc1)=NCc1nnc(C)n1-2` [Compound 14e, N-(4-Oxo-4-((4-(2,3,9-trimethyl-6H-thieno[3,2-f][1,2,4]triazolo[4,3-a][1,4]diazepin-4-yl)phenyl)amino)but-2-yn-1-yl)-4-(2,3,9-trimethyl-6H-thieno[3,2-f][1,2,4]triazolo[4,3-a][1,4]diazepin-4-yl)benzamide], the 90% effect level (IC90) was put at 260 pM.

Take `CCC(=O)N1c2ccccc2[C@H](Nc2ccc(NC(=O)CNC(=O)Nc3ccc(C4=NCc5nnc(C)n5-c5sc(C)c(C)c54)cc3)cc2)C[C@@H]1C` [Compound 14f, N-(4-(((2S,4R)-2-Methyl-1-propionyl-1,2,3,4-tetrahydroquinolin-4-yl)amino)phenyl)-2-(3-(4-(2,3,9-trimethyl-6H-thieno[3,2-f][1,2,4]triazolo[4,3-a][1,4]diazepin-4-yl)phenyl)ureido)acetamide]: the 90% effect level (IC90) was put at 310 pM.

`CCC(=O)N1c2ccccc2[C@H](Nc2ccc(C(=O)NCC#CC(=O)Nc3ccc(C4=NCc5nnc(C)n5-c5sc(C)c(C)c54)cc3)cc2)C[C@@H]1C` [Compound 14g, 4-(((2S,4R)-2-Methyl-1-propionyl-1,2,3,4-tetrahydroquinolin-4-yl)amino)-N-(4-oxo-4-((4-(2,3,9-trimethyl-6H-thieno[3,2-f][1,2,4]triazolo[4,3-a][1,4]diazepin-4-yl)phenyl)amino)but-2-yn-1-yl)benzamide] returned a concentration for an effect of 90% (IC90) of 30 pM.

`CCC(=O)N1c2ccccc2[C@H](Nc2ccc(NC(=O)NCC(=O)Nc3ccc(C4=NCc5nnc(C)n5-c5sc(C)c(C)c54)cc3)cc2)C[C@@H]1C` [Compound 14h, 2-(3-(4-(((2S,4R)-2-Methyl-1-propionyl-1,2,3,4-tetrahydroquinolin-4-yl)amino)phenyl)ureido)-N-(4-(2,3,9-trimethyl-6H-thieno[3,2-f][1,2,4]triazolo[4,3-a][1,4]diazepin-4-yl)phenyl)acetamide] yielded an IC90 of 340 pM.

For the molecule `CCC(=O)N1c2ccccc2[C@H](Nc2ccc(NC(=O)C#CCNC(=O)c3ccc(C4=NCc5nnc(C)n5-c5sc(C)c(C)c54)cc3)cc2)C[C@@H]1C` [Compound 14i, N-(4-((4-(((2S,4R)-2-Methyl-1-propionyl-1,2,3,4-tetrahydroquinolin-4-yl)amino)phenyl)amino)-4-oxobut-2-yn-1-yl)-4-(2,3,9-trimethyl-6H-thieno[3,2-f][1,2,4]triazolo[4,3-a][1,4]diazepin-4-yl)benzamide], it took 30 pM to reach the 90% level (IC90).

The molecule `CCC(=O)N1c2ccccc2[C@H](Nc2ccc(C(=O)NCc3ccc(-c4ccc(C5=NCc6nnc(C)n6-c6sc(C)c(C)c65)cc4)s3)cc2)C[C@@H]1C` [Compound 14j, 4-(((2S,4R)-2-Methyl-1-propionyl-1,2,3,4-tetrahydroquinolin-4-yl)amino)-N-((5-(4-(2,3,9-trimethyl-6H-thieno[3,2-f][1,2,4]triazolo[4,3-a][1,4]diazepin-4-yl)phenyl)thiophen-2-yl)methyl)benzamide] showed an IC90 of 740 pM.

With `CCC(=O)N1c2ccccc2[C@H](Nc2ccc(C(=O)NC3CN(C(=O)c4ccc(C5=NCc6nnc(C)n6-c6sc(C)c(C)c65)cc4)C3)cc2)C[C@@H]1C` [Compound 14k, 4-(((2S,4R)-2-Methyl-1-propionyl-1,2,3,4-tetrahydroquinolin-4-yl)amino)-N-(1-(4-(2,3,9-trimethyl-6H-thieno[3,2-f][1,2,4]triazolo[4,3-a][1,4]diazepin-4-yl)benzoyl)azetidin-3-yl)benzamide], the IC90 amounted to 1800 pM.

`CCC(=O)N1c2ccccc2[C@H](Nc2ccc(C(=O)NCCC(=O)Nc3ccc(C4=NCc5nnc(C)n5-c5sc(C)c(C)c54)cc3)cc2)C[C@@H]1C` [Compound 14m, 4-(((2S,4R)-2-Methyl-1-propionyl-1,2,3,4-tetrahydroquinolin-4-yl)amino)-N-(3-oxo-3-((4-(2,3,9-trimethyl-6H-thieno[3,2-f][1,2,4]triazolo[4,3-a][1,4]diazepin-4-yl)phenyl)amino)propyl)benzamide] came in with an IC90 of 1450 pM.
